Assay results: patent publication EP0379737A2, “Dihydropyridine derivatives for the treatment of angiospasm” (THE GREEN CROSS CORPORATION, priority 1988, dated 1990)

Experiments:
[1] = tested on: coronarism induced by laser cauterization of the coronary artery; experiment: Preventive effect of premedication with coronary vasodilators on coronarism induced by laser cauterization of the coronary artery; format: in vivo; details: anesthetized dogs, drugs given 10 minutes before cauterization (TNG 100 µg i.c. + 50 µg/min d.i.v.; NC 30 µg/kg/min d.i.v.; Compound 2 10 µg/kg i.v.); for Degree of Stenosis (%) (m ± SE) 10 mins. After: 10 minutes after cauterization; for Degree of Stenosis (%) (m ± SE) 30 mins. After: 30 minutes after cauterization; for Degree of Stenosis (%) (m ± SE) Immediately After: immediately after cauterization
Procedure: Preventive effect of premedication of coronary vasodilators on coronarism induced by laser cauterization of the coronary artery was examined using dogs.
Twenty-three anesthetized dogs premediated with a coronary vasodilator [8 dogs in non-treated group (control group); 7 in nitroglycerin-treated (TNG) group (100 µg i.c. (intracoronary) + 50 µg/min d.i.v. (intravenous drip injection)); 5 in Nicorandil (NC) group (30 µg/kg/min d.i.v); and 8 in Compound 2 (hereinafter described) group (10 µg/kg i.v.)] were used. A 9F guiding catheter was inserted from the right common carotid artery into the 28th circumflex ramus extending from the anterior descending branch of the right common carotid artery. After intravenous injection of 250 U of heparin and 20 mg of lidocaine, a probe having an argon laser heating tip having a diameter of 1.5 mm (manufactured by Trimedyne Corp.) was inserted through the catheter, and 10 minutes after the administration of drugs the coronary vessel was cauterized under a condition of 4.5 W × […] under photofluoroscopic observation. Before the cauterization, immediately after the cauterization, and 10 minutes and 30 minutes after the cauterization, changes of the coronary artery were angiographically observed. The degree of stenosis (%) was calculated from the measured inner diameter each of the cauterized site and the normal site. The degree of stenosis of a site undergoing retardation of angiography was taken as 99%.

[2] = Toxicity: LD50 determination in mice; details: mouse, in vivo; 10 to 11-week-old male mice, 3 to 5 mice per group; read-out: LD₅₀
Procedure: LD₅₀ was determined for Compound 2 as prepared in Reference Example 1 below using 10 to 11-week-old male mice (body weight: 14 to 16 g; 3 to 5 mice per group). AS a result, measured LD₅₀ values were more than 1,100 mg/kg at the lowest.

Structure (SMILES)	Degree of Stenosis (%) (m ± SE) 10 mins. After [1]	Degree of Stenosis (%) (m ± SE) 30 mins. After [1]	Degree of Stenosis (%) (m ± SE) Immediately After [1]	LD50 [2] [mg/kg]
O=[N+]([O-])OCC(CO[N+](=O)[O-])O[N+](=O)[O-] [TNG, nitroglycerin]	73 ± 17	66 ± 17	71 ± 4	–
COC(=O)C1=C(C)NC(C)=C(C(=O)OCCc2ccc(N3CCN(C(c4ccccc4)c4ccccc4)CC3)cc2)C1c1cccc([N+](=O)[O-])c1 (stereo not shown) [Compound 2, 2-[p-(4-benzhydrylpiperazino)phenyl]ethyl methyl 2,6-dimethyl-4-(3-nitrophenyl)-1,4-dihydropyridine-3,5-dicarboxylate]	9 ± 10	12 ± 12	12 ± 12	> 1100
O=C(NCCO[N+](=O)[O-])c1cccnc1 [NC, Nicorandil]	28 ± 9	29 ± 8	38 ± 11	–
